Source: patent EP4361137A1, “PRUNE1 INHIBITORS AND THERAPEUTIC USE THEREOF” (CEINGE Biotecnologie Avanzate Franco Salvatore s.c. a r.l., priority 2022, dated 2024)

Key:
c-Prune1 (354-453) = biological target: T1, c-Prune1 (354-453) (Homo sapiens, UniProt Q86TP1); experiment: NMR and microscale thermophoresis interaction study; assay type: binding; conditions: KD not given
T1 construct: 20 µM of c-Prune1 (354-453) protein was labelled with 60 µM of NT-647-NHS reactive dye; made in house
T1 sequence (Q86TP1 354-453): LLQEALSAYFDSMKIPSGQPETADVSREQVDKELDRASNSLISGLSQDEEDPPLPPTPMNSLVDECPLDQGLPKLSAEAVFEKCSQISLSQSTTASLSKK
Procedure: For interaction studies, samples (total volume, 600 µL) were prepared in 5-mm NMR tubes, using 1mM of AA7.5 and 10µM of C-prune1 (AA7.5/C-prune1 molar ratio of 100:1) in H2O/^2H2O mixture at pH 6.8. STD spectra were acquired with 512 scans with onresonance irradiation at -0.5 ppm for selective saturation of protein resonances and off-resonance irradiation at 30 ppm for reference spectra. A train of 40 Gaussian-shaped pulses of 50 milliseconds with 1-millisecond delay between pulses were used, for a total saturation time of 2 seconds. […]
1H and STD spectra of AA7.5 alone were acquired as reference. […] Relative STD values were calculated by dividing STD signal intensities by the intensities of the corresponding signals in a 1D 1H NMR reference spectrum of the same sample recorded with 512 scans and similarly processed. […] To determine the per residue chemical shift perturbation upon binding and account for differences in spectral widths between ^15N and ^1H resonances, weighted average chemical shift differences, ΔδHN , were calculated for the amide ^15N and ^1H resonances, using equation: ΔδHN = ([((ΔHN))^2+((0.17×Δ^15N))^2])^((1)/(2)) [formula] where ΔH and ΔN are the differences between free and bound chemical shifts. […]

Prune1 = experiment: Immunoblotting of Prune1 in MMTV-Prune1/Wnt1 cells; assay type: cell-based, human and murine; conditions: dose of 10 mM
Procedure: D425.MED and MMTV-Prune1/Wnt1 cells were plated and treated with increasing concentrations of LEO-AA7.5(S)T for 24 hours. Water-treated cells were used as negative control for the experiments.
Cells for immunoblotting analysis were washed in cold PBS and lysed in cell lysis buffer [20 mM sodium phosphate (pH 7.4), 150 mM NaCl, 10% (v/v) glycerol, 1% (w/v) sodium deoxycholate, 1% (v/v) Triton X-100] supplemented with protease inhibitors (Roche). The resulting cell lysates were cleared by centrifugation at 16,200g for 10 min at room temperature, and the supernatants were re- moved and assayed for protein concentrations with the Protein Assay Dye Reagent (Bio-Rad). The cell lysates (30 µg) were resolved by SDS-polyacrylamide gel electrophoresis (SDS-PAGE) gels of different percentages, which depended on the molecular weights of the proteins of interest. The proteins were then electrophoretically transferred to polyvinylidene difluoride (PVDF) membranes (Millipore). After 1 hour in blocking solution with 5% (w/v) dry milk fat in PBS or 5% (w/v) BSA (Sigma-Aldrich) in tris-buffered saline [both of which contained 0.02% (v/v) Tween 20] […] The peak areas of the bands were measured on the densitometry plots, and the relative proportions (percentages) were calculated. […]

In the case of `COc1ccc(CNc2ncnc(N3CCC[C@H](CO)C3)n2)cc1.Cl` [LEO-AA7.5(S)T, (S)-(1-(4-((4-methoxybenzyl)amino)-1,3,5-triazin-2-yl)piperidin-3-yl)methanol HCl salt], the “binding to Prune1 protein at its Carboxyl-terminus domain” value (c-Prune1 (354-453)) is reported as “binds Prune1 protein” and the “degradation of human and murine Prune protein” value (Prune1) is reported as “enhance the degradation”.
